Where a SMILES comes first, the peptide text is derived from it. Bridges are numbered along the chain shown (N, C = ends).
Tests used:
[1] = target: T1, guanylate cyclase-C (GC-C) (Homo sapiens, UniProt P25092); assay: Competitive radioligand ([125I]-pSTa) binding assay on T84 cells; design: cell-surface GC-C receptors on human colonic epithelial (T84) cells; endogenous in cells; host or cells: T84 human colonic epithelial cells; conditions: competition with 170 pM [125I]-pSTa for cell-surface GC-C receptors on T84 cells; read-out: inhibition constant (Ki), relative binding affinity
T1 sequence (P25092 24-1073): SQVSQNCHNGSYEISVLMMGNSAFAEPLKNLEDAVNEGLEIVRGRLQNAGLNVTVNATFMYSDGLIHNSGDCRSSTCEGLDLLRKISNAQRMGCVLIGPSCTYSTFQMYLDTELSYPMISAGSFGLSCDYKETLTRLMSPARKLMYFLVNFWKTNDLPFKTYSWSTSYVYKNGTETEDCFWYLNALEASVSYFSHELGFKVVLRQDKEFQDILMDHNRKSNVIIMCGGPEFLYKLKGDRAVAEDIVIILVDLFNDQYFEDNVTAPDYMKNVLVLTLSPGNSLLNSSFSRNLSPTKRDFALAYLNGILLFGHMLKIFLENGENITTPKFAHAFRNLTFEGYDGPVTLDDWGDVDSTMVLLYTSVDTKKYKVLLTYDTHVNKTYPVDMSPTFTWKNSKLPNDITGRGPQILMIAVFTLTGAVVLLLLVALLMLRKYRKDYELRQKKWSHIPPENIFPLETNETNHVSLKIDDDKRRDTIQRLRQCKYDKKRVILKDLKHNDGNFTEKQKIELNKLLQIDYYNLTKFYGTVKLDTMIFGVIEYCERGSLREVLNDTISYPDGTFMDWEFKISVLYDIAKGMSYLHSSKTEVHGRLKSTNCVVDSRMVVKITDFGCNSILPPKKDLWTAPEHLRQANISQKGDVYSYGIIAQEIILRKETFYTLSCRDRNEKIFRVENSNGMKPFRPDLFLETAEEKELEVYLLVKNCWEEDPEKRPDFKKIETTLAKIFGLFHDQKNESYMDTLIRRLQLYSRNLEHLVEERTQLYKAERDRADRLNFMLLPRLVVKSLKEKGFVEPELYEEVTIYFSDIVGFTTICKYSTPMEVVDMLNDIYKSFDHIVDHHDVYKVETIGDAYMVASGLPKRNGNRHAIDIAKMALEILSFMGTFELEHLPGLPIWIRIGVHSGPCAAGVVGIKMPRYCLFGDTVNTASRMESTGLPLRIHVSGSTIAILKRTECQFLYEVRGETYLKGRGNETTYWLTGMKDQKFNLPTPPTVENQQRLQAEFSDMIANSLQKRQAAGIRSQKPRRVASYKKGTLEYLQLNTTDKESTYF
Procedure: The relative binding affinities of linaclotide and Cys1-IMD to the guanylate cyclase-C receptor (GC-C) were determined using a competitive-binding assay in which the peptides competed with a known GC-C agonist, porcine-derived heat-stable enterotoxin (pSTa), for binding sites on cell-surface GC-C receptors on human colonic epithelial (T84) cells. The pSTa was radiolabeled with ^125I to enable measurement of its receptor binding. The competitive-binding assay was performed by adding various concentrations of each peptide (0.1 to 3,000 nM) to 0.20 mL reaction mixtures containing Dulbecco's modified Eagle's medium (DMEM), 0.5% bovine serum albumin (BSA), 2.0×10^5 T84 cells, and 170 pM [^125I]-pSTa (200,000 cpm). The data were used to construct competitive radioligand-binding curves and determine the relative binding affinities of linaclotide and Cys1-IMD, as measured by their IC50 and Ki values.

[2] = target: T1, guanylate cyclase-C (GC-C); assay: cGMP response in T84 cells (GC-C agonist activity); format: cell-based; design: tested for guanylate cyclase-C (GC-C) agonist activity in T84 cells; endogenous in cells; host or cells: T84 cells
Procedure: Linaclotide and Cys1-IMD were tested for guanylate cyclase-C (GC-C) agonist activity in T84 cells as follows. In each well of a 96-well plate, approximately 200,000 T84 cells/well was first incubated with 1 mM 3-isobutyl-1-methylxanthine (IBMX) in 0.18 mL of Dulbecco's modified Eagle's medium (DMEM) for 10 minutes at 37° C. Each peptide was diluted to final concentrations ranging from 0.1 to 10,000 nM, and 0.02 mL of each dilution was added in duplicate to a 96-well plate containing the T84 cells, for a final volume of 0.20 mL per well. The peptide reactions were incubated for 30 min at 37° C. Following the incubation, the supernatants were removed and discarded and the cells were lysed with cold 0.1 M hydrochloric acid (HCl) for 30 min on ice. The cell debris was removed by centrifugation and the concentration of guanosine 3′,5′-cyclic monophosphate (cyclic GMP) in each lysate was determined using liquid chromatography with tandem mass spectrometry. The data were used to construct dose-response curves and calculate half-maximal effective concentration (EC50) values for each test article.

[3] = after oral administration at therapeutic dose levels; cited from earlier work

Structure (SMILES): C[C@@H]1NC(=O)[C@@H]2CCCN2C(=O)[C@H](CC(N)=O)NC(=O)[C@@H]2CSSC[C@H](N)C(=O)N[C@H]3CSSC[C@H](NC1=O)C(=O)N[C@@H]([C@@H](C)O)C(=O)NCC(=O)N[C@H](C(=O)N[C@@H](Cc1ccc(O)cc1)C(=O)O)CSSC[C@H](NC(=O)[C@H](Cc1ccc(O)cc1)NC(=O)[C@H](CCC(=O)O)NC3=O)C(=O)N2 [Linaclotide, Cys Cys Glu Tyr Cys Cys Asn Pro Ala Cys Thr Gly Cys Tyr] (H-CCEYCCNPACTGCY-OH; disulfide 1-6, 2-10, 5-13 (inferred); N-terminus and C-terminus assumed)
- Ki [1]: 3.9 ± 1.6 nM
- EC50 [2]: 315 ± 105 nM
- levels of linaclotide seen systemically [3]: no detectable levels
